Results as given in patent US20090176817A1, “Method of Treatment of Diarrhea-Predominant Irritable Bowel Syndrome in a Subject” (priority 2005, published 2009).
Where two headings read alike, the source gives them in different places. Marks after values point to notes of the source that are not given here.

Columns and labels:
[1] = Study S.241.1.109: interaction with ketoconazole 200 mg BID; format: in vivo, human; conditions: for AUC(0-τ) / Cmax / Tmax: steady state; for AUC(0-τ): AUC(0-8); for AUC(0-τ) / Cmax: arith. mean; for Tmax: median
Description: In an open-label, randomized, parallel-group study in three groups of 12 healthy, male and female subjects (aged 19 to 45 years), subjects received a 2 mg single dose of cilansetron on Day 1, 2 mg TID on Days 2-13, and a 2 mg single dose on Day 14. […] All morning doses of cilansetron and enzyme inhibitors were administered immediately after a standard breakfast. […] For each treatment group, log-transformed cilansetron AUC(0-τ) and Cmax values on Day 14 (cilansetron+enzyme inhibitor) were compared statistically versus values on Day 7 (cilansetron alone).

[2] = Study S.241.1.110: ex vivo protein binding in serum, healthy and renally impaired; conditions: for Fraction unbound ratio All Renal Groups Combined:Healthy / Fraction unbound ratio Mild:Healthy / Fraction unbound ratio Moderate:Healthy / Fraction unbound ratio Severe:Healthy: ratio (90% CI)
Description: The ex vivo protein binding of cilansetron and its 4-hydroxy metabolites has been measured in serum samples collected in a multiple-dose study in healthy and renally impaired male and female subjects, aged 33-74 years. […] Healthy subjects were matched to renally-impaired subjects with respect to age, weight, gender, and smoking status. All subjects received oral cilansetron 2 mg TID on Days 1 to 5, and a single dose on the morning of Day 6.

[3] = Study S.241.1.110: pharmacokinetics in renal impairment, 2 mg TID; conditions: for AUC(0-τ) / Cmax / T½ / Tmax / Cmin: cilansetron 2 mg TID; for AUC(0-τ) / Cmax / T½ / Cmin: mean (%CV); for Tmax: median; for Cmin: Day 6 morning predose value
Description: (§1) The effect of renal impairment on the pharmacokinetics of cilansetron was evaluated in a study excluding subjects with end-stage renal disease, and utilizing a single-center, open-label, multiple-dose, parallel group study in 13 male and 9 female subjects, aged 33-74 years. […] Healthy subjects were matched to renally-impaired subjects with respect to age, weight, gender, and smoking status. All subjects received oral cilansetron 2 mg TID on Days 1 to 5, and a single dose on the morning of Day 6. Blood samples for measurement of plasma pharmacokinetics of cilansetron and its 4-hydroxy metabolites were collected up to 24 hours following dosing on Day 6, and log-transformed pharmacokinetic parameters for these analytes were statistically compared between study groups. Serum concentrations of unbound cilansetron and its 4-hydroxy metabolites were also measured prior to dosing and at 1 and 1.5 hours postdose on Day 6.

[4] = both, human, in vivo
Description: as §1

[5] = clinical; format: in vitro ADME; conditions: male, human, plasma; 8 mg oral/IV, 30, 45, 120 minutes; read-out: Fraction bound
Description: Plasma protein binding was also measured in blood samples collected at 30, 45, and 120 minutes after dosing in a single-dose, crossover study in which cilansetron 8 mg was administered orally (solution and capsule) and intravenously to 18 male subjects. In samples where total and/or free concentrations were measurable, fraction bound was about 96-98%.

[6] = test system: IBS patients; experiment: Study K.241.5016: colonic visceral perception; format: in vivo, human
Description: The effect of cilansetron on colonic visceral perception was evaluated in a randomized, doubleblind, placebo-controlled, 2-way crossover study in 16 male and female IBS patients (ITT population), aged 28-66 years. Subjects received single IV doses of placebo or cilansetron 16 mg as 30-minute infusions on two consecutive study days, with no washout between the study days. Colonic distension tests were performed just prior to dosing and after completion of the infusion during each treatment. An electronic barostat was used to produce distensions (successive 4 mmHg increases every 5 minutes, up to a sensation of abdominal pain or a maximum of 40 mmHg). The primary efficacy parameter was the mean distension pressure inducing a sensation of abdominal pain. Secondary effect parameters were the mean distension pressure inducing a sensation of abdominal discomfort, and the response rate, defined as the number of patients experiencing no abdominal pain at the maximum pressure of 40 mmHg. The primary and secondary parameters were compared between cilansetron and placebo treatments using an ANOVA.

[7] = Cilansetron 2 mg TID + Ketoconazole 200 mg twice daily
[8] = Cilansetron 2 mg TID alone (ketoconazole group)
[9] = cilansetron + ketoconazole / cilansetron alone, ANOVA of log-transformed data
[10] = moderate renal impairment, Day 6
[11] = 16 mg single IV dose, ANOVA, not significant
[12] = 16 mg single IV dose, postdose minus predose, IBS patients, mean (SD)

SMILES: Cc1nccn1CC1CCc2c(c3cccc4c3n2CC[C@@H]4O)C1=O (stereo partly drawn) [(4S)-hydroxy cilansetron]
- AUC(0-τ) [1, 7]: 13.5 ng·h/mL
- Cmax [1, 7]: 2.29 ng/mL
- Tmax [1, 7]: 2.00 h
- AUC(0-τ) [1, 8]: 8.42 ng·h/mL
- Cmax [1, 8]: 1.35 ng/mL
- Tmax [1, 8]: 3.00 h
- AUC(0-τ) Ratio (Treatment B/A) [1, 9]: 163%
- Cmax Ratio (Treatment B/A) [1, 9]: 174%
- Fraction unbound ratio All Renal Groups Combined:Healthy ([2]; 1 h): 102 (86, 121) %
- Fraction unbound ratio Mild:Healthy ([2]; 1 h): 81 (65, 101) %
- Fraction unbound ratio Moderate:Healthy ([2]; 1 h): 124 (98, 156) %
- Fraction unbound ratio Severe:Healthy ([2]; 1 h): 106 (84, 133) %
- Fraction Unbound in Serum ([2]; Day 6 1 h, Healthy): 53.6 (20) %
- Fraction Unbound in Serum ([2]; Day 6 1 h, Mild): 42.8 (7) %
- Fraction Unbound in Serum ([2]; Day 6 1 h, Moderate): 69.3 (45) %
- Fraction Unbound in Serum ([2]; Day 6 1 h, Severe): 56.1 (15) %
- Fraction Unbound in Serum ([2]; Day 6 […], Healthy): 58.0 (21) %
- Fraction Unbound in Serum ([2]; Day 6 […], Mild): 46.3 (11) %
- Fraction Unbound in Serum ([2]; Day 6 […], Moderate): 57.4 (28) %
- Fraction Unbound in Serum ([2]; Day 6 […], Severe): 42.4 (9) %
- Fraction Unbound in Serum ([2]; Day 6 predose, Healthy): 51.9 (24) %
- Fraction Unbound in Serum ([2]; Day 6 predose, Mild): 48.9 (40) %
- Fraction Unbound in Serum ([2]; Day 6 predose, Moderate): 54.0 (26) %
- Fraction Unbound in Serum ([2]; Day 6 predose, Severe): 51.4 (30) %
- Fraction unbound ratio All Renal Groups Combined:Healthy ([2]; […]): 84 (72, 99) %
- Fraction unbound ratio Mild:Healthy ([2]; […]): 81 (67, 99) %
- Fraction unbound ratio Moderate:Healthy ([2]; […]): 99 (80, 123) %
- Fraction unbound ratio Severe:Healthy ([2]; […]): 75 (60, 93)^b %
- Protein bound on average ([2]; healthy subjects): 42.0-48.1%
- Fraction unbound ratio All Renal Groups Combined:Healthy ([2]; predose): 98 (79, 121) %
- Fraction unbound ratio Mild:Healthy ([2]; predose): 91 (69, 121) %
- Fraction unbound ratio Moderate:Healthy ([2]; predose): 104 (77, 140) %
- Fraction unbound ratio Severe:Healthy ([2]; predose): 98 (73, 133) %
- Plasma protein bound ([2]; therapeutic concentration range): 42-48%
- Plasma Conc. ([3]; Day 6 1 h, Healthy): 1.60 (26) ng/mL
- Plasma Conc. ([3]; Day 6 1 h, Mild): 2.26 (43) ng/mL
- Plasma Conc. ([3]; Day 6 1 h, Moderate): 2.74 (58) ng/mL
- Plasma Conc. ([3]; Day 6 1 h, Severe): 8.32 (40) ng/mL
- AUC(0-τ) ratio Mild/Healthy ([3]; Day 6, geometric LS mean ratio (90% CI)): 119 (85, 168) %
- AUC(0-τ) ratio Moderate/Healthy ([3]; Day 6, ratio (90% CI)): 174 (120, 251)* %
- AUC(0-τ) ratio Renal Combined/Healthy ([3]; Day 6, ratio (90% CI)): 219 (168, 286)* %
- AUC(0-τ) ratio Severe/Healthy ([3]; Day 6, ratio (90% CI)): 507 (351, 733)* %
- Cmax ratio Mild/Healthy ([3]; Day 6, ratio (90% CI)): 129 (91, 181) %
- Cmax ratio Moderate/Healthy ([3]; Day 6, ratio (90% CI)): 171 (118, 248)* %
- Cmax ratio Renal Combined/Healthy ([3]; Day 6, ratio (90% CI)): 220 (168, 288)* %
- Cmax ratio Severe/Healthy ([3]; Day 6, ratio (90% CI)): 485 (335, 702)* %
- T½ ratio Mild/Healthy ([3]; Day 6, ratio (90% CI)): 108 (81, 144) %
- T½ ratio Moderate/Healthy ([3]; Day 6, ratio (90% CI)): 142 (104, 193) %
- T½ ratio Renal Combined/Healthy ([3]; Day 6, ratio (90% CI)): 142 (113, 177)* %
- T½ ratio Severe/Healthy ([3]; Day 6, ratio (90% CI)): 186 (136, 254)* %
- Plasma Conc. ([3]; Day 6 […], Healthy): 1.68 (25) ng/mL
- Plasma Conc. ([3]; Day 6 […], Mild): 1.91 (35) ng/mL
- Plasma Conc. ([3]; Day 6 […], Moderate): 2.98 (56) ng/mL
- Plasma Conc. ([3]; Day 6 […], Severe): 8.57 (32) ng/mL
- AUC(0-τ) ([3]; healthy subjects, Day 6): 12.9 (25) ng · h/mL
- Cmax ([3]; healthy subjects, Day 6): 2.15 (21) ng/mL
- T½ ([3]; healthy subjects, Day 6): 8.68 (29) h
- Tmax ([3]; healthy subjects, Day 6): 2.00 h
- Cmin ([3]; healthy subjects): 1.24 (31) ng/mL
- Mean AUC(0-τ) increase vs healthy ([3]; mild impairment): 19%
- Mean Cmax increase vs healthy ([3]; mild impairment): 29%
- AUC(0-τ) ([3]; mild renal impairment, Day 6): 15.3 (25) ng · h/mL
- Cmax ([3]; mild renal impairment, Day 6): 2.77 (22) ng/mL
- T½ ([3]; mild renal impairment, Day 6): 9.31 (24) h
- Tmax ([3]; mild renal impairment, Day 6): 2.00 h
- Cmin ([3]; mild renal impairment): 1.76 (38) ng/mL
- Mean AUC(0-τ) increase vs healthy ([3]; moderate impairment): 74%
- Mean Cmax increase vs healthy ([3]; moderate impairment): 71%
- AUC(0-τ) [3, 10]: 25.3 (64) ng · h/mL
- Cmax [3, 10]: 4.10 (60) ng/mL
- T½ [3, 10]: 12.4 (28) h
- Tmax [3, 10]: 1.75 h
- Cmin ([3]; moderate renal impairment): 2.71 (72) ng/mL
- Mean AUC(0-τ) increase vs healthy ([3]; severe impairment): 407%
- Mean Cmax increase vs healthy ([3]; severe impairment): 385%
- AUC(0-τ) ([3]; severe renal impairment, Day 6): 67.0 (35) ng · h/mL
- Cmax ([3]; severe renal impairment, Day 6): 11.2 (46) ng/mL
- T½ ([3]; severe renal impairment, Day 6): 16.7 (45) h
- Tmax ([3]; severe renal impairment, Day 6): 1.40 h
- Cmin ([3]; severe renal impairment): 7.00 (35) ng/mL

SMILES: Cc1nccn1C[C@H]1CCc2c(c3cccc4c3n2CCC4)C1=O [Cilansetron, (R)-(−)-4,5,6,8,9,10-hexahydro-10-[(2-methyl-1H-imidazol-1-yl)methyl]-11H-pyrido-[3,2,1-jk]-carbazol-11-one]
- AUC(0-τ) ratio Mild/Healthy [4]: 71 (38, 132) %
- AUC(0-τ) ratio Moderate/Healthy [4]: 49 (25, 95) %
- AUC(0-τ) ratio Renal Combined/Healthy [4]: 76 (47, 124) %
- AUC(0-τ) ratio Severe/Healthy [4]: 130 (66, 254) %
- CL/F ratio Mild/Healthy [4]: 141 (76, 264) %
- CL/F ratio Moderate/Healthy [4]: 206 (105, 403) %
- CL/F ratio Renal Combined/Healthy [4]: 131 (81, 213) %
- CL/F ratio Severe/Healthy [4]: 77 (39, 151) %
- Cmax ratio Mild/Healthy [4]: 83 (50, 140) %
- Cmax ratio Moderate/Healthy [4]: 55 (32, 96) %
- Cmax ratio Renal Combined/Healthy [4]: 90 (60, 134) %
- Cmax ratio Severe/Healthy [4]: 156 (89, 272) %
- T½ ratio Mild/Healthy [4]: 85 (63, 114) %
- T½ ratio Moderate/Healthy [4]: 65 (47, 89)* %
- T½ ratio Renal Combined/Healthy [4]: 78 (62, 99) %
- T½ ratio Severe/Healthy [4]: 87 (64, 120) %
- Tmax ([4]; 2 mg): 1.13 h
- fraction unbound [5]: 0.02 to 0.04
- Responders (no abdominal pain at 40 mmHg) ([6]; 16 mg IV): 1 of 12
- Pressure inducing abdominal pain, Mean Difference to Placebo [6, 11]: −1.33 mmHg
- Pressure inducing abdominal sensation, Mean Difference to Placebo [6, 11]: −0.67 mmHg
- Pressure inducing abdominal pain, Difference Postdose [6, 12]: 3.67 (4.66) mmHg
- Pressure inducing abdominal sensation, Difference Postdose [6, 12]: 2.67 (3.55) mmHg
